Several values for one entry are separate records, joined by “and”; a condition that tells them apart may be missing. Equal entries are not always repeated.
Assays:
[1] = test system: Aspergillus fumigatus NF4905; test: Antifungal MIC; assay type: cell-based
Erg26p Arg315His = test: In vitro microsomal Erg26p activity assay, mutant; assay type: biochemical, S. cerevisiae; conditions: microsome extracts
Source text: (§1) Thus many of the FR171456 resistance mutations were mapped close to the NAD^+ or the substrate-binding site. The presence of three active conservative mutations Arg39Lys, […], and Arg315His in proximity to NAD^+ and substrate-binding site are consistent with FR171456 binding the substrate-binding pocket thus inhibiting the enzymatic activity. To address this more directly, we tested microsome extracts from the erg26Δ haploid yeast strains expressing the Erg26p wild type, Arg39Lys, Arg307His and Arg315His mutants in increasing doses of FR171456 to assess Erg26p mutant activity (Fig. 3b). Whilst Arg39Lys and Arg307His shift the I50 2-fold, Arg315His confers a 20-fold shift in I50. This highlights the importance of the interaction between Arg315 and the carboxyl group of the substrate/inhibitor as one of the most critical in the Erg26p active site (Fig. 3c).
(§2) Wild-type yeast (FL200) microsomes were prepared as follows.

Erg26p Arg39Lys = test: In vitro microsomal Erg26p activity assay, mutant; assay type: biochemical, S. cerevisiae; conditions: microsome extracts
Source text: as §1, §2

Erg26p Arg307His = test: In vitro microsomal Erg26p activity assay, mutant; assay type: biochemical, S. cerevisiae; conditions: microsome extracts
Source text: as §1, §2

[2] = test system: Aspergillus terreus NF4906; test: Antifungal MIC; assay type: cell-based
R. oryzae = test: Combination with clinical antifungal agents (Loewe synergy); assay type: cell-based; conditions: >1 is synergistic
[3] = test system: Candida tropicalis NF2903; test: Antifungal MIC; assay type: cell-based
[4] = test system: Cryptococcus neoformans NF3102; test: Antifungal MIC; assay type: cell-based
[5] = test system: replicon-carrying Huh-7 cells; test: Proliferation/viability of replicon-carrying Huh-7 cells (resazurin); assay type: cell-based, human; conditions: replicon assay conditions
Method: The inhibitor screening was performed in 1,536-well plate with 3,000 cells per well, using Huh-7 cells containing the HCV replicon subgenomic genotype 1b, maintained in DMEM, supplemented with (1 × ) L-glutamine (L-Glue), 1 × non-essential amino acids, 10% heat-inactivated fetal bovine serum (FBS), and 1 mg ml^–1 G418, and incubated with compounds for 48 h at 37 °C, 5% CO2. […] Following compound incubation, Resazurin solution (10 × : 1 μg μl^–1 Resazurin in DMSO) diluted to 1 × was then added to a volume of 0.5 μl to each well and incubated for further 3 h at 37 °C, 5% CO2 to monitor cell viability. Subsequently 15 μl, diluted 1:2 from stock of Steady- Glo (Promega) was added and the luminescence from the HCV replicon was monitored using the Envision (Envision US Lum, using 0.1 s per well measurement time).

hepatic sterol synthesis = test system: hepatic sterol synthesis; parameters: method as in PMID 15217190; conditions: rats, short term experiments, up to 10 mg kg^−1 ref 14; cited from earlier work
Candida albicans NF2103 = test: Antifungal MIC; assay type: cell-based
K562 = test: Mammalian cell proliferation, K562; assay type: cell-based
HepG2 = test: Mammalian cell proliferation, HepG2; assay type: cell-based
[6] = test system: Fusarium verticillioides NF4901; test: Antifungal MIC; assay type: cell-based
F. solani = test: Combination with clinical antifungal agents (Loewe synergy, growth by OD530); assay type: cell-based; conditions: >1 is synergistic
Method: incubated for 24 h in increasing combined doses of FR171456 and Amphotericin B, and growth
assessed by OD530. (a) Normalised growth rates plotted as % inhibition of growth. (b) Loewe excess
heat map showing difference between predicted scores based upon the addition of each agent
alone and the actual values detected plotted as difference in % of inhibition. (c) Loewe isobologram
- a comparison of the doses of each compound needed to achieve 50% inhibition of proliferation.

C=C(CCC(C)C1CCC2C1(C)CC(O)C13CC14C(=O)CC(O)C(C)(C(=O)O)C4C(=O)CC23O)C(C)C [FR171456, (1R,2aR,3R,5aR,5bS,7aR,8S,9S,11aS,12aR)-1,5b,9-trihydroxy-2a,8-dimethyl-3-((R)-6-methyl-5-methyleneheptan-2-yl)-7,11-dioxohexadecahydrocyclopenta[a]cyclopropa[e]-phenanthrene-8-carboxylic acid]
MIC [1]: 16 µg/mL and 36 µM | shift in I50 versus wild type (Erg26p Arg315His): 20 fold | shift in I50 versus wild type (Erg26p Arg39Lys): 2 fold | shift in I50 versus wild type (Erg26p Arg307His): 2 fold | MIC [2]: 4 µg/mL and 9 µM | Loewe synergy score (R. oryzae; combination with Amphotericin B): < 1 | Loewe synergy score (R. oryzae; combination with posaconazole): < 1 | MIC [3]: 72 µM and 32 µg/mL | MIC [4]: 32 µg/mL and 72 µM | concentration not affecting proliferation [5]: > 4 µM | dose giving significant reduction in hepatic sterol synthesis (hepatic sterol synthesis): 0.1 mg/kg | MIC (Candida albicans NF2103): 32 µg/mL and 72 µM | concentration affecting proliferation (K562): 36 µM | concentration affecting proliferation (HepG2): 80 µM | MIC [6]: 32 µg/mL and 72 µM | Loewe synergy score (F. solani; combination of Amphotericin B and FR171456, text prints R. oryzae, Supplementary Fig. 4 F. solani): 2.7 | Loewe synergy score (F. solani; combination with posaconazole): < 1

— paper PMC4633953, “FR171456 is a specific inhibitor of mammalian NSDHL and yeast Erg26p” (Nature Communications, 2015)
